Patent US20200030214A1, “USE OF COMPATIBLE SOLUTES” (MERCK PATENT GMBH, priority 2017, published 2020)

Legend:
Format in all cases: cell-based
HaCaT keratinocytes [1] = assay: Protective effect against blue light induced carbonylated protein formation (SDS-PAGE, fluorescent labelling); conditions: 24 h, blue light 460 nm 35 J/cm^2, FIGS. 5 and 6
Experimental: (§1) HaCaT keratinocytes are cultured in calcium-free DMEM (Dulbecco's Modified Eagle Medium), with 10% SVF, at 37° C. and humid atmosphere, supplemented with 5% CO2 for 24 h.
(§2) After this initial time period the cell cultures are treated with the respective active compound. A non treated sample is used as reference.
(§3) The following active compounds are used in the above method: • Ectoin (Merck KGaA, Germany) 0.5% w/v dissolved in culture medium. • Ectoin (Merck KGaA, Germany) 0.3% w/v dissolved in culture medium • N-acetyl-cysteine (NAC) (Sigma-Aldrich) 2.5 mM, as internal reference
(§4) After a time period of 24 h, stress is induced in the samples by treatment with blue light irradiation (460 nm) or UVA irradiation (365 nm). In addition, samples not treated with an active compound are left non-irradiated for comparison.
Blue light irradiation (460 nm): • Source: LED • Irradiance: 53 mW/cm^2 • Dose: 35 J/cm^2 (corresponding to the emission of a computer screen during 8 h/d for 3 days) • Irradiation time: 11 min […]
(§5) In situ detection of carbonylated proteins: After thawing of the samples, protein extraction from cells is performed using OxiProteomics' validated protocols. Extracted proteins are solubilized and quantified by the Bradford method (Bradford, 1976, Anal. Biochem., 72, 248) using calibrated BSA as standard. […] Quantification is obtained from each sample, both for carbonylated and total proteins.

HaCaT keratinocytes [2] = assay: Effect of ectoin on suppression of intracellular carbonylated protein accumulation induced by oleic acid; conditions: 100 mM ectoin pre-treatment for 24 h, then 200 μM oleic acid for 48 h; FIG. 2
Experimental: The effect of ectoin on carbonylated protein accumulation is analysed. In order to induce Hsp70, HaCaT keratinocytes are cultured with 100 mM ectoin (Merck KGaA, Germany) for 24 h. Cells are cultured with oleic acid for further 48 hours, and CP levels are determined. In this examination, 200 μM oleic acid is used to evaluate the effect of ectoin on CP accumulation in the cells. HaCaT keratinocytes are cultured in DMEM containing 5% FBS and 100 mM ectoin for 24 h. Cells are further cultured with DMEM containing 200 μM oleic acid for 48 h. After fixing with cold methanol for 5 min, cells are reacted with 20 μmol/L FTSC in 0.1 mol/L MES-Na buffer (pH 5.5) at room temperature for 1 h. Fluorescence intensities derived from CPs are measured at Ex/Em 492 nm/516 nm with a fluorescence microplate reader, TECAN SPARK 10M (Mannedorf, Switzerland). Numbers of cells are determined by measuring fluorescence intensities of nuclei stained with Hoechst 33342. Intracellular CP levels are calculated as fluorescence intensity of FTSC per fluorescence intensities of nuclei.

HaCaT keratinocytes [3] = assay: Protective effect against UVA induced carbonylated protein formation (SDS-PAGE, fluorescent labelling); conditions: 24 h, UVA 365 nm 33 J/cm^2, in comparison to the control, FIGS. 3 and 4
Experimental: as §1, §2, §3, §4
UVA irradiation (365 nm): • Source: LED • Irradiance: 50 mW/cm^2 • Dose: 33 J/cm^2 (i.e. less intense than 15 minutes at noon in the middle European sunlight) • Irradiation time: 11 min […]
as §5

HaCaT keratinocytes [4] = assay: Intracellular carbonylated protein (CP) levels in HaCaT keratinocytes cultured with oleic acid (FTSC fluorescence); conditions: HaCaT keratinocytes cultured in DMEM containing oleic acid at several concentrations for 48 h; FIG. 1
Experimental: Protein carbonylation is initiated by reactive aldehyde compounds which are synthesized by lipid peroxidation. Since skin pores are always immersed by sebum, oleic acid which is one of the sebum components, is used as a source of intracellular synthesis of reactive aldehyde compounds to establish cells with accumulated carbonylated proteins.
Cell culture: HaCaT keratinocytes are cultured in Dulbeco's modified Eagle's medium (DMEM) (Nissui, Tokyo, Japan) supplemented with 5% fetal bovine serum (FBS) (Thermofisher, Waltham, Calif., USA) at 37° C. in 5% CO2 and 95% air.
For this example HaCaT keratinocytes are cultured in DMEM containing oleic acid at several concentrations for 48 h. After fixing with cold methanol for 5 min, cells are reacted with 20 μmol/L FTSC (Sigma-Aldrich, St. Louis, Mo., USA in 0.1 mol/L MES-Na buffer (pH 5.5) at room temperature for 1 h. Fluorescence intensities derived from CPs are measured at Ex/Em 492 nm/516 nm with a fluorescence microplate reader, TECAN SPARK 10M (Mannedorf, Switzerland). Numbers of cells are determined by measuring fluorescence intensities of nuclei stained with Hoechst 33342 (Sigma-Aldrich (St. Louis, Mo., USA)). Intracellular CP levels are calculated as fluorescence intensity of FTSC per fluorescence intensities of nuclei.

## CC1=N[C@H](C(=O)O)CCN1 [ectoin, (S)-1,4,5,6-tetrahydro-2-methyl-4-pyrimidincarboxylic acid]
HaCaT keratinocytes [1]; ectoin 0.3% w/v
  protective effect against blue light induced protein carbonylation: significant protective effect
HaCaT keratinocytes [1]; ectoin 0.5% w/v
  protective effect against blue light induced protein carbonylation: significant protective effect
HaCaT keratinocytes [2]
  CP accumulation through oleic acid: suppression of CP accumulation
HaCaT keratinocytes [3]; ectoin 0.3% w/v
  protective effect against UVA induced protein carbonylation: significant protective effect
HaCaT keratinocytes [3]; ectoin 0.5% w/v
  protective effect against UVA induced protein carbonylation: No significant comparison

## CCCCCCCC/C=C\CCCCCCCC(=O)O [oleic acid]
HaCaT keratinocytes [4]
  level of intracellular CPs: higher level of intracellular CPs
